Experimental data from patent US12637432B2, “Inhibitors of ACK1/TNK2 tyrosine kinase” (H. LEE MOFFITT CANCER CENTER AND RESEARCH INSTITUTE, INC., priority 2020, dated 2026).

Assays:
ACK1 [1] = molecular target: T1, ACK1 (Homo sapiens, UniProt Q07912); test: ACK1 IC50 (Table 1, assay not specified); format: biochemical
T1 construct: purchased Reaction Biology

AKT Tyr176 = conditions: pancreatic cancer cells; cited from earlier work
AR Tyr267 = conditions: cited from earlier work
[2] = tested on: castration and radioresistant prostate xenograft tumor; conditions: in vivo; cited from earlier work
ACK1 [3] = molecular target: T1, ACK1; test: Reaction Biology 33P Hotspot assay; format: biochemical
UKE1 = test: Cell viability (UKE1); format: cell-based
MDA-MB-231 = test: Cell viability (MDA-MB-231); format: cell-based; conditions: Homo sapiens
ACK1 [4] = molecular target: T1, ACK1; test: ACK1 ELISA % inhibition at 100 nM; format: biochemical
[5] = attributed to oxidation of dithiolane ring and NMe2; cited from earlier work

T1 sequence (Q07912 whole entry): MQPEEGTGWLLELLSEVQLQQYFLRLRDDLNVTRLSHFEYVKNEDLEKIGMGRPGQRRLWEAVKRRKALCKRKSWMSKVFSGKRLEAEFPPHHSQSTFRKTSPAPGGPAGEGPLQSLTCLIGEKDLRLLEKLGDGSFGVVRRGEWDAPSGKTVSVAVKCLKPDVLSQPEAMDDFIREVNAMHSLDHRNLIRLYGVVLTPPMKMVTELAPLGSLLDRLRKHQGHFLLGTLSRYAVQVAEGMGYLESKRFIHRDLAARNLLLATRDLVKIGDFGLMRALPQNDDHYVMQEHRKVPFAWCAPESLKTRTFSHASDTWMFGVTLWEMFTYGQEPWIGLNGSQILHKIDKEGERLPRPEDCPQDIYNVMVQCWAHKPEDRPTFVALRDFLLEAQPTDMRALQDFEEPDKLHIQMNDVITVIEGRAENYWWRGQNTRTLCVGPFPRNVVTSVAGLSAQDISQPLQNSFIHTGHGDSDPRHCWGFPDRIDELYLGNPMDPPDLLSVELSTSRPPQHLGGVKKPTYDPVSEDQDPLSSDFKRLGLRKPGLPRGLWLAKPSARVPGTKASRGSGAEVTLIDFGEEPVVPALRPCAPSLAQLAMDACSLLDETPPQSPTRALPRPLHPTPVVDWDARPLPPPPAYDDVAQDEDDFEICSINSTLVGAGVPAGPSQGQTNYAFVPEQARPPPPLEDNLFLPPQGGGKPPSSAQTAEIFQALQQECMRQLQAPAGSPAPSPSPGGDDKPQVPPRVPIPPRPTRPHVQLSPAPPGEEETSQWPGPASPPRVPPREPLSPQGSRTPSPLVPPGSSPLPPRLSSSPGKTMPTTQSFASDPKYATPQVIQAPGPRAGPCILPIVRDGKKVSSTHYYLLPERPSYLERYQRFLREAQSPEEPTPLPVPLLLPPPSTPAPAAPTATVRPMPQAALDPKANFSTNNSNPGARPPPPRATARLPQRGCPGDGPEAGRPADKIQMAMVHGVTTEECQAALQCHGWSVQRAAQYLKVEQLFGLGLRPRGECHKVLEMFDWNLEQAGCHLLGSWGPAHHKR

OCCn1cc(-c2ccc(Nc3ncc(Cl)c(NC[C@H]4CCCO4)n3)cc2F)cn1 [(R)-2-(4-(4-((5-chloro-4-(((tetrahydrofuran-2-yl)methyl)amino)pyrimidin-2-yl)amino)-2-fluorophenyl)-1H-pyrazol-1-yl)ethan-1-ol]
IC50 (ACK1 [1]): 46.1 nM

c1ccc(-c2oc3ncnc(NC[C@@H]4CCCO4)c3c2-c2ccccc2)cc1 [Compound 1b]
ACK1 dependent AKT Tyr176 phosphorylation (AKT Tyr176): inhibits
AR Tyr267 phosphorylation (AR Tyr267): inhibits
castration and radioresistant prostate xenograft tumor growth [2]: inhibits

Fc1cc(Nc2ncc(Cl)c(NC[C@H]3CCCO3)n2)ccc1OCCN1CCCC1 [(R)-5-chloro-N^2-(3-fluoro-4-(2-(pyrrolidin-1-yl)ethoxy)phenyl)-N^4-((tetrahydrofuran-2-yl)methyl)pyrimidine-2,4-diamine]
IC50 (ACK1 [1]): 60.1 nM

Cn1cc(-c2ccc(Nc3ncc(Cl)c(NCC4CCOCC4)n3)cc2)cn1 [5-chloro-N^2-(4-(1-methyl-1H-pyrazol-4-yl)phenyl)-N^4-((tetrahydro-2H-pyran-4-yl)methyl)pyrimidine-2,4-diamine]
IC50 (ACK1 [3]): 29.1 nM
EC50 (UKE1): 6700 nM
EC50 (MDA-MB-231): 7720 nM

COc1cc(N2CCN(C)CC2)ccc1Nc1ncc(C)c(Nc2cccc(NS(=O)(=O)C(C)(C)C)c2)n1 [N-(3-((2-((2-methoxy-4-(4-methylpiperazin-1-yl)phenyl)amino)-5-methylpyrimidin-4-yl)amino)phenyl)-2-methylpropane-2-sulfonamide]
inhibition at 0.1 µM (ACK1 [4]): 100%

COc1cc(N2CCN(C)CC2)ccc1Nc1ncc(Cl)c(NCc2ccc(C(F)(F)F)cc2)n1 [5-chloro-N^2-(2-methoxy-4-(4-methylpiperazin-1-yl)phenyl)-N^4-(4-(trifluoromethyl)benzyl)pyrimidine-2,4-diamine]
inhibition at 0.1 µM (ACK1 [4]): 31.1%

COc1cc(N2CCN(C)CC2)ccc1Nc1ncc(Cl)c(N(CCc2ccccc2)CC2CCCO2)n1 (stereo not shown) [5-chloro-N^2-(2-methoxy-4-(4-methylpiperazin-1-yl)phenyl)-N^4-phenethyl-N^4-((tetrahydrofuran-2-yl)methyl)pyrimidine-2,4-diamine]
inhibition at 0.1 µM (ACK1 [4]): 38.5%

Fc1cc(Nc2ncc(Cl)c(NC[C@H]3CCCO3)n2)ccc1-c1cnn(C2CCOCC2)c1 [(R)-5-chloro-N^2-(3-fluoro-4-(1-(tetrahydro-2H-pyran-4-yl)-1H-pyrazol-4-yl)phenyl)-N^4-((tetrahydrofuran-2-yl)methyl)pyrimidine-2,4-diamine]
IC50 (ACK1 [1]): 78.7 nM

COCCn1cc(-c2ccc(Nc3ncc(Cl)c(NC[C@H]4CCCO4)n3)cc2F)cn1 [(R)-5-chloro-N^2-(3-fluoro-4-(1-(2-methoxyethyl)-1H-pyrazol-4-yl)phenyl)-N^4-((tetrahydrofuran-2-yl)methyl)pyrimidine-2,4-diamine]
IC50 (ACK1 [1]): 137 nM

Clc1cnc(Nc2ccc(OCCN3CCCC3)cc2)nc1NC[C@H]1CCCO1 [(R)-5-chloro-N^2-(4-(2-(pyrrolidin-1-yl)ethoxy)phenyl)-N^4-((tetrahydrofuran-2-yl)methyl)pyrimidine-2,4-diamine]
IC50 (ACK1 [1]): 56.5 nM

CN(C)CCOc1ccc(-c2oc3ncnc(NCC4SCCS4)c3c2-c2ccccc2)cc1 [Compound 1c]
pharmacokinetic properties [5]: poor pharmacokinetic properties

O=C(COc1cccc2c1C(=O)N(C1CCC(=O)NC1=O)C2=O)NCCCCN1CCN(c2ccc(Nc3ncc(Cl)c(NC[C@H]4CCCO4)n3)cc2)CC1 (stereo partly drawn) [N-(4-(4-(4-((5-chloro-4-((((R)-tetrahydrofuran-2-yl)methyl)amino)pyrimidin-2-yl)amino)phenyl)piperazin-1-yl)butyl)-2-((2-(2,6-dioxopiperidin-3-yl)-1,3-dioxoisoindolin-4-yl)oxy)acetamide]
IC50 (ACK1 [1]): 56.4 nM
